In publication PMC7346717 (Nature structural & molecular biology, 2018):

How the values were obtained:
[1] = target: T1, ΔN-drSLC38A9 (ΔN-SLC38A9) (Danio rerio, UniProt Q08BA4, N227Q/N235Q/N252Q/N263Q); assay: proteoliposome radioligand uptake; type: biochemical; conditions: 0.5 μM [3H]L-arginine, labelled compound; NaCl, MES pH 5.0
T1 sequence (Q08BA4 71-549 N227Q/N235Q/N252Q/N263Q): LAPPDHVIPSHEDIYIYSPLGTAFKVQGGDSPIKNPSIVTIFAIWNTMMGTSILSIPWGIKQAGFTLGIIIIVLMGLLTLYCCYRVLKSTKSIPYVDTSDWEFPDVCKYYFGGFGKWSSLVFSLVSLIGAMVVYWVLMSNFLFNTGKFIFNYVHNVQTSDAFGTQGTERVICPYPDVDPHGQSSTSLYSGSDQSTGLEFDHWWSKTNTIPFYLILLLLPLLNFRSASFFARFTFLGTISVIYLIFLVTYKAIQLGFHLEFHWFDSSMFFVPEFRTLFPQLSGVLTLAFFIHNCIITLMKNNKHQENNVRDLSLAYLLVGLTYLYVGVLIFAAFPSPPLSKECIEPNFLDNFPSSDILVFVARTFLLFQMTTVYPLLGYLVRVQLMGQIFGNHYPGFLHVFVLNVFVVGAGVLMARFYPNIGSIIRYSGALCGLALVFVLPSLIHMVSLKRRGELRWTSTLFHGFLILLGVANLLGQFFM

[2] = target: T2, drSLC38A9 (full-length, wild-type) (Danio rerio, UniProt Q08BA4); assay: proteoliposome radioligand uptake; type: biochemical; conditions: 0.5 μM [3H]L-arginine, labelled compound; Na+ (not K+ or NMG), pH 5.0
T2 sequence (Q08BA4 1-549): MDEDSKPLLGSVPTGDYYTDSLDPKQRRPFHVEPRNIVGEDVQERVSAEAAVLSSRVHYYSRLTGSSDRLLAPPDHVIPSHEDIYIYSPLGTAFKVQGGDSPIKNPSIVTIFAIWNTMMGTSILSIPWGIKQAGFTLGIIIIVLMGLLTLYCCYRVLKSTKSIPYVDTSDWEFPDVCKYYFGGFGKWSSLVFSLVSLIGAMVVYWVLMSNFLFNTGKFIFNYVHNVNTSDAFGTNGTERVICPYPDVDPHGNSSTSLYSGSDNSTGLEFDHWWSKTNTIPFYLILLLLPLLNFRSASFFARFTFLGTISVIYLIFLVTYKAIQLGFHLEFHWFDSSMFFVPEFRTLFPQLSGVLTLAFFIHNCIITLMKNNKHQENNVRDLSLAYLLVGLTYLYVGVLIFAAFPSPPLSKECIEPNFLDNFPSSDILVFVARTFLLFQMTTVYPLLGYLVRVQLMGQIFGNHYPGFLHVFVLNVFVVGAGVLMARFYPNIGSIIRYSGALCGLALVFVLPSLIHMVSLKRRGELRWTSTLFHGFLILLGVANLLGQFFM

N=C(N)NCCC[C@H](N)C(=O)O [arginine]
proteoliposome radioligand uptake [1]: the truncated drSLC38A9 protein is active and able to bind arginine similarly to the wild-type | proteoliposome radioligand uptake [2]: robust uptake was observed in the presence of sodium
